One data set concerns the target T1, V1a receptor (Homo sapiens, UniProt P37288).
T1 construct: host or cells: CHO cells
Nature of the data set: V1a Human Vasopressin GPCR Cell Based Agonist Calcium Flux Assay. The settings on record: Table 3; for EC50 / Emax: n = 2; for Emax: read-out: V1a Highest agonist effect (% of AVP). The protocol: Peptides of Formula (I) include Mpa-Tyr-Phe-Hgn-Asn-Cys-Pro-Lys(X)a-Gly-NH2 [SEQ ID NO. 24]; where (X)a is a peptide with “a” residues and each residue X is independently selected from Gly, and a D- or L-amino acid version of Ala, Lys, Orn, Glu, and Asp, where “a” is 0-10. V1a Human Vasopressin GPCR Cell Based Agonist Calcium Flux Assay were conducted at Eurofins Cerep SA (France) on a fee for service basis. Human recombinant CHO cells expressing human V1 receptors were distributed in microplates. Intracellular calcium signal was detected by fluorimetry, and the signal was acquired before and after addition of a known agonist concentration. The following agonist concentrations were tested (nM); 0.0128, 0.064, 0.32, 1.6, 8, 40, 200, and 1,000. […] All assays were performed in duplicate. Changes in fluorescence intensity reflected changes in the concentration of free cytosolic calcium. […] The half-maximal effective concentration (EC50) was determined by a non-linear regression analysis of the concentration-response curves generated with mean replicate values using Hill equation curve fitting (Cerep, I'Evescault, France).
V1a Human Vasopressin GPCR Cell Based Agonist Calcium Flux Assay were conducted using human recombinant CHO cells expressing human V1 receptor. Briefly, human recombinant CHO cells expressing human V1 receptor were distributed in microplates at 4.5×10^4 cells/well. The fluorescent probe (Fluo4 Direct, Invitrogen) mixed with probenicid in HBSS buffer (Invitrogen) complemented with 20 mM HEPES (Invitrogen) (pH 7.4) is then added into each well and equilibrated with the cells for 60 min at 37° C. then 15 min at 22° C. Thereafter, the assay plates are positioned in a microplate reader (CellLux, PerkinElmer) which is used for the addition of the test compound, reference agonist or HBSS buffer (basal control), and the measurements of changes in fluorescence intensity which varies proportionally to the free cytosolic Ca^2+ ion concentration. The following agonist concentrations were tested (nM), 0.0128, 0.064, 0.32, 1.6, 8, 40, 200, and 1,000. […] All assays were performed in duplicate. Changes in fluorescence intensity reflected changes in the concentration of free cytosolic calcium. […] Referring to FIG. 3 and Table 4, the half-maximal effective concentration (EC50) was determined by non-linear regression analysis of the concentration-response curves generated with mean replicate values using Hill equation curve fitting (Cerep, I'Evescault, France).
On the technique in general: Calcium flux is commonly read through the fluorescence of an indicator in the cells.

Data set [1] can be described thus: Therapeutic index (NOAEL/NOEL): paleness, lethargy, ataxia observation in Sprague-Dawley rats (Example 7). The settings on record: for Highest dose with no-observed effect level or paleness (NOEL) / NOAEL/NOEL (therapeutic index) / NOAEL / Ataxia (duration, hrs; SD) / Lethargy (duration, hrs; SD) / Marked adverse effect (Lowest dose first showed Ataxia) / Mild adverse effect (Lowest dose first showed Lethargy) / NOAEL at 24 h: rat; for NOAEL / NOAEL at 24 h: read-out: Highest dose with no-observed adverse effect level without lethargy (NOAEL); for NOAEL at 24 h: male, Sprague-Dawley. The format is in vivo. The text has this:
As used herein, the term “therapeutic index” (TI; also referred to as therapeutic ratio) is a quantitative measure of the relative safety of a drug. […] For the purpose of the present application, lethargy is a lack of energy and/or sleepiness which is visually observed in rats as a lack of mobility, such as a lack of mobility even in the presence of human activity. For the purpose of present specification, peripheral vasoconstriction is visually observed by a paleness of the extremities (e.g., skin of hands, feet, ears, and lips). In rats, peripheral vasoconstriction is determined by a side-by-side comparison of ear paleness in treated subjects (e.g., Sprague Dawley rats, a white rat with easily visualizable changes in redness/paleness) vs. untreated control subjects. The V1a agonist (or partial agonist) with a high therapeutic index will have a better safety profile than that with a low therapeutic index by providing a wider margin of safety for dosing during the treatment of the disease. This NOAEL/NOEL ratio, being a quantitative measure of the relative safety, is a comparison of the amount of a therapeutic agent that causes the therapeutic effect (useful effect, vasoconstriction for the purpose of the present specification) to the amount that causes toxicity. A V1a agonist that causes severe vasoconstriction will affect not only the peripheral vessels, with several layer of smooth muscles, but also other vessels present in other organs (e.g., heart, lungs, kidney, brain) and this will result in observed lethargy and eventually ataxia. A partial agonist is less likely to reach such an extreme level of vasoconstriction and is believed to have a higher therapeutic index.
In this study, 8 to 10 weeks male Sprague-Dawley rats (Charles River; Wilmington, MA) under isoflurane anesthesia (n=3 or 6) were intravenously (IV) or subcutaneously (SC) injected or administered with various test articles. Prior to administration of test articles, the injection area was clipped free of fur, to allow for clear visualization of the dose site, and animal weight was measured and recorded. Animals were housed two per cage. […] Lethargy is when the animal eyes cannot fully open and is associated deep breathing and limited of movement even in the presence of human.

Where [2] appears, read: cells printed in μM, read-out: Estimated V1a EC50.
Setting [3] is: S.C., at the Marked adverse effect dose.
Setting [4] is: S.C., at the Mild adverse effect dose.

This is an account of results in patent US12410211B2, “V1A receptor partial agonist and method of use” (PharmaIN Corporation, priority 2020, dated 2025).

The term EC50 denotes the concentration needed to bring the measured effect to its halfway point. The term NOAEL denotes the highest dose or exposure tested at which no adverse effect was seen.

Each structure is given as a SMILES string. Like-named read-outs stand apart in the source and are kept apart here. Marks after values point to notes of the source that are not given here. Where a SMILES comes first, the peptide text is derived from it. Bridges are numbered along the chain shown (N, C = ends). [ ]: non-standard residue; d: D form. Aad = N[C@@H](CCCC(=O)O)C(=O)O; Dab = NCC[C@H](N)C(=O)O; Mpa = O=C(O)CCS

T1 sequence (P37288 whole entry): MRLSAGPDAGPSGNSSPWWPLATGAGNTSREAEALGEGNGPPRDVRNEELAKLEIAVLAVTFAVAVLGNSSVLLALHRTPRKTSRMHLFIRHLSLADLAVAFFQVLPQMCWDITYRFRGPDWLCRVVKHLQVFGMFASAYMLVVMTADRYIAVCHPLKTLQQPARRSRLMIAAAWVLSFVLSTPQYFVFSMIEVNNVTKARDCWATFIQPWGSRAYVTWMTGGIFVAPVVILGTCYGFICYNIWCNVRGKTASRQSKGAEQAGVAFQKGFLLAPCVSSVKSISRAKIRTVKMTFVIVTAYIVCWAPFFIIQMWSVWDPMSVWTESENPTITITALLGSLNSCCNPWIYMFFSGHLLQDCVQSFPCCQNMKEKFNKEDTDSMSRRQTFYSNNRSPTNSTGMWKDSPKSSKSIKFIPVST

For the compound `CCCCCCCCCCCC(=O)NCCCC[C@H](NC(=O)[C@@H]1CCCN1C(=O)[C@@H]1CSSCCC(=O)N[C@@H](Cc2ccc(O)cc2)C(=O)N[C@@H](Cc2ccccc2)C(=O)N[C@@H](CCCC(N)=O)C(=O)N[C@@H](CC(N)=O)C(=O)N1)C(=O)NCC(N)=O` [SEQ ID NO. 27, Mpa-Tyr-Phe-Hgn-Asn-Cys-Pro-Lys(X)a-Gly-NH2; (X)a = Lauric acid], the “V1a Highest agonist effect (% of AVP); n = 2” value at V1a receptor was “inactive”. For the same compound, at V1a receptor (setting [2]), the EC50 was more than 10 µM. Besides, in data set [1] (S.C.), the “Highest dose with no-observed effect level or paleness (NOEL)” value turned out to be 100 µg/kg and the “NOAEL/NOEL (therapeutic index)” value is given as 90 (dose too. The NOAEL in data set [1] (in vivo, sc, S.C.) came to 9 mg/kg. In data set [1] (in vivo, sc), the “Ataxia (duration, hrs; SD)” value is reported as “None Observed”; the “Lethargy (duration, hrs; SD)” value was “None Observed”; the “Marked adverse effect (Lowest dose first showed Ataxia)” value (“Marked adverse effect” below) is more than 9 mg/kg; the “Mild adverse effect (Lowest dose first showed Lethargy)” value (“Mild adverse effect” below) was more than 9 mg/kg.

With `NC[C@H](N)C(=O)NCCCC[C@H](NC(=O)[C@@H]1CCCN1C(=O)[C@@H]1CSSCCC(=O)N[C@@H](Cc2ccc(O)cc2)C(=O)N[C@@H](Cc2ccccc2)C(=O)N[C@@H](CCCC(N)=O)C(=O)N[C@@H](CC(N)=O)C(=O)N1)C(=O)NCC(N)=O` [SEQ ID NO. 29, Mpa-Tyr-Phe-Hgn-Asn-Cys-Pro-Lys(X)a-Gly-NH2; (X)a = Dap], the Emax on V1a receptor is 7.5%.

Turning to `CC(=O)NCC(=O)NCC(=O)NCC(=O)NCC(=O)NCC(=O)NCC(=O)NCC(=O)NCC(=O)NCC(=O)NCCCC[C@H](NC(=O)[C@@H]1CCCN1C(=O)[C@@H]1CSSCCC(=O)N[C@@H](Cc2ccc(O)cc2)C(=O)N[C@@H](Cc2ccccc2)C(=O)N[C@@H](CCCC(N)=O)C(=O)N[C@@H](CC(N)=O)C(=O)N1)C(=O)NCC(N)=O` [SEQ ID NO. 26, Mpa-Tyr-Phe-Hgn-Asn-Cys-Pro-Lys(X)a-Gly-NH2; (X)a = (Gly)9-Ac], the half-maximal effective concentration (EC50) at V1a receptor (setting [2]) was more than 10 µM. In addition, at V1a receptor, the Emax is 40%.

On to `NCCCCCCCCCCCC(=O)NCCCC[C@H](NC(=O)[C@@H]1CCCN1C(=O)[C@@H]1CSSCCC(=O)N[C@@H](Cc2ccc(O)cc2)C(=O)N[C@@H](Cc2ccccc2)C(=O)N[C@@H](CCCC(N)=O)C(=O)N[C@@H](CC(N)=O)C(=O)N1)C(=O)NCC(N)=O` [SEQ ID NO. 19, Mpa-Tyr-Phe-Hgn-Asn-Cys-Pro-Lys(12-aminododecanoic acid)-Gly-NH2], for which, on V1a receptor (setting [2]), the EC50 is more than 10 µM. For the same compound, the Emax at V1a receptor was determined as 2.5%. Besides, in data set [1] (S.C.), the “Highest dose with no-observed effect level or paleness (NOEL)” value is 14 µg/kg, the “Marked adverse effect” value is more than 9.08 mg/kg, the “Mild adverse effect” value was more than 9.08 mg/kg and the “NOAEL/NOEL (therapeutic index)” value is recorded as 649 (Dose too. In addition, in data set [1] (in vivo, sc, S.C.), the NOAEL turned out to be 9.08 mg/kg. In data set [1] (in vivo, sc), the “Ataxia (duration, hrs; SD)” value is on record as “None Observed” and the “Lethargy (duration, hrs; SD)” value is “None Observed”.

Consider `NCCCC[C@H](NC(=O)[C@@H]1CCCN1C(=O)[C@@H]1CSSCCC(=O)N[C@@H](Cc2ccc(O)cc2)C(=O)N[C@@H](Cc2ccccc2)C(=O)N[C@@H](CCCC(N)=O)C(=O)N[C@@H](CC(N)=O)C(=O)N1)C(=O)NCC(N)=O` [SEQ ID NO. 25, Mpa-Tyr-Phe-Hgn-Asn-Cys-Pro-Lys-Gly-NH2], for which the Emax at V1a receptor was 42.8%. In addition, the “Paleness (Duration, hrs; SD)” value was “(4.9 ± 0.05) hrs” in data set [1] (setting [3]); “(5.66 ± 0.83) hrs” in data set [1] (setting [4]); “(3.78 ± 0.05) hrs” in data set [1] (S.C., at the NOAEL dose); “None observed” in data set [1] (S.C., at the NOEL dose). Besides, the “Highest dose with no-observed effect level or paleness (NOEL)” value in data set [1] (S.C.) came out at 1.5 µg/kg. For the same compound, the “NOAEL/NOEL (therapeutic index)” value in data set [1] (S.C.) came out at 10. Besides, the NOAEL at 24 h in data set [1] (in vivo, sc, S.C.) came to 0.015 mg/kg. The “Marked adverse effect” value in data set [1] (in vivo, sc) was 0.15 mg/kg. In addition, the “Mild adverse effect” value in data set [1] (in vivo, sc) turned out to be 0.05 mg/kg. For the same compound, the “bioactivity duration compared with terlipressin” value in data set [1] (remark in NOAEL/NOEL column) is 3x longer.

As for `NCC(=O)NCC(=O)NCC(=O)NCC(=O)NCCCC[C@H](NC(=O)[C@@H]1CCCN1C(=O)[C@@H]1CSSCCC(=O)N[C@@H](Cc2ccc(O)cc2)C(=O)N[C@@H](Cc2ccccc2)C(=O)N[C@@H](CCCC(N)=O)C(=O)N[C@@H](CC(N)=O)C(=O)N1)C(=O)NCC(N)=O` [SEQ ID NO. 11, Mpa-Tyr-Phe-Hgn-Asn-Cys-Pro-Lys(X)a-Gly-NH2; (X)a = (Gly)4], the EC50 at V1a receptor (CHO cells expressing human V1 receptor, read-out: Estimated V1a EC50 (nM)) is 0.161 µM. In addition, at V1a receptor, the Emax was determined as 33.6%. The “Paleness (Duration, hrs; SD)” value in data set [1] (setting [3]) was “(>6.93)* hrs”; in data set [1] (setting [4]), “(>6.85)* hrs”; in data set [1] (S.C., at the NOAEL dose) it was “(6.02 ± 0.06) hrs”; in data set [1] (S.C., at the NOEL dose) it was “None Observed”. In addition, in data set [1] (S.C.), the “Highest dose with no-observed effect level or paleness (NOEL)” value was 1.5 µg/kg. For the same compound, the “NOAEL/NOEL (therapeutic index)” value in data set [1] (S.C.) is 100. Also, the NOAEL at 24 h in data set [1] (in vivo, sc, S.C.) came to 0.15 mg/kg. In data set [1] (in vivo, sc), the “Marked adverse effect” value came to 1.5 mg/kg. For the same compound, in data set [1] (in vivo, sc), the “Mild adverse effect” value came out at 0.5 mg/kg.

As for `NCCC[C@H](NC(=O)[C@@H]1CCCN1C(=O)[C@@H]1CSSCCC(=O)N[C@@H](Cc2ccc(O)cc2)C(=O)N[C@@H](Cc2ccccc2)C(=O)N[C@@H](CCCC(N)=O)C(=O)N[C@@H](CC(N)=O)C(=O)N1)C(=O)NCC(N)=O` [SEQ ID NO. 30, Mpa-Tyr-Phe-Hgn-Asn-Cys-Pro-Orn-Gly-NH2], in data set [1] (S.C.), the “Highest dose with no-observed effect level or paleness (NOEL)” value was found to be 0.5 µg/kg. The NOAEL in data set [1] (in vivo, sc, S.C.) amounted to 0.005 mg/kg. Besides, in data set [1] (in vivo, sc), the “Marked adverse effect” value came out at 0.044 mg/kg and the “Mild adverse effect” value was found to be 0.015 mg/kg.

In the case of `NCC[C@H](NC(=O)[C@@H]1CCCN1C(=O)[C@@H]1CSSCCC(=O)N[C@@H](Cc2ccc(O)cc2)C(=O)N[C@@H](Cc2ccccc2)C(=O)N[C@@H](CCCC(N)=O)C(=O)N[C@@H](CC(N)=O)C(=O)N1)C(=O)NCC(N)=O` [SEQ ID NO. 31, Mpa-Tyr-Phe-Hgn-Asn-Cys-Pro-Dab-Gly-NH2] ([Mpa]YF[Aad](NH2)NCP[Dab]G-NH2; disulfide 1-6), the “Highest dose with no-observed effect level or paleness (NOEL)” value in data set [1] (S.C.) was 0.5 µg/kg. In addition, the NOAEL in data set [1] (in vivo, sc, S.C.) came out at 0.005 mg/kg. In addition, in data set [1] (in vivo, sc), the “Marked adverse effect” value was 0.045 mg/kg and the “Mild adverse effect” value amounted to 0.015 mg/kg.
